Measurements as given in US8263044B2, “Stilbene like compounds as novel HDAC inhibitors” (Orchid Research Laboratories Limited, priority 2005, dated 2012).

Experiments:
[1] = tested on: HCT 116 cells; assay: cells; details: Homo sapiens, HCT-116, 48 h; for GI50: read-out: HCT116 GI50; for CC50: read-out: HCT116 LC50
Description: (§1) Experimental drugs are screened for anti-cancer activity in three cell lines for their GI50, TGI and LC50 values (using five concentrations for each compound). The cell lines are maintained in DMEM containing 10% fetal bovine serum. 96 well micro titer plates are inoculated with cells in 100 μL for 24 h at 37° C., 5% CO2, 95% air and 100% relative humidity. 5000 HCT 116 cells/well, 5000 NCIH 460 cells/well and 5000 U251 cells/well are plated. A separate plate with these cell lines is also inoculated to determine cell viability before the addition of the compounds (T0) (See Table I).
(§2) Following 24-hour incubation, experimental drugs are added to the 96 well plates. Each plate contains one of the above cell lines and the following in triplicate: five different concentrations (0.01, 0.1, 1, 10 and 100 μM) of four different compounds, appropriate dilutions of a cytotoxic standard and control (untreated) wells. Compounds are dissolved in DMSO to make 20 mM stock solutions on the day of drug addition and frozen at −20° C. Serial dilutions of these 20 mM stock solutions are made in complete growth medium such that 100 μL of these drug solutions in medium, of final concentrations equaling 0.01, 0.1, 1, 10 and 100 μM can be added to the cells in triplicate. […] (See Table I).
(§3) For T0 measurement, 24 hours after seeding the cells, 10 μL of 3-(4,5-Dimethyl-2-thiazolyl)-2,5-diphenyl-2H-tetrazolium (MTT) solution per well is added and incubation carried out for 3 hours at 37° C., 5% CO2, 95% air and 100% relative humidity, protected from light. Cells incubated with compounds for 48 hours are treated similarly except with the addition of 20 μL MTT solution per well and a subsequent incubation under the same conditions. After 3 hours of MTT incubation, well contents are aspirated carefully followed by addition of 150 μL DMSO per well. Plates are agitated to ensure solution of the formazan crystals in DMSO and absorbance read at 570 nm. (See Table I).
(§4) Percent growth is calculated for each compound's concentration relative to the control and zero measurement wells (T0; viability right before compound addition).
(§5) If a test well's O.D. value is lower than the T0 measurement for that cell line, then, % Growth=(test−zero)/zero×100

[2] = tested on: MDAMB231/U251; assay: cells; details: 48 h, read-out: MDAMB231/U251 GI50
Description: as §1, §2, §3, §4, §5

[3] = tested on: NCIH 460 cells; assay: cells; details: Homo sapiens, NCI-H460, 48 h; for GI50: read-out: NCIH460 GI50; for CC50: read-out: NCIH460 LC50
Description: as §1, §2, §3, §4, §5

[4] = tested on: NCIH460, HCT116, MDAMB231/U251; assay: Anti-cancer screen, mean GI50 over the cell lines; type: cell-based; details: mean over the three cell lines; no unit in table
Description: as §1, §2, §3
Percent growth is calculated for each compound's concentration relative to the control and zero measurement wells (T0; viability right before compound addition). […]

[5] = tested on: HDAC activity (Mouse Liver Extract); assay: Histone Deacetylase (HDAC) Inhibition Assay using Boc-Lys (Ac)-AMC Substrate; type: biochemical; details: mouse liver enzyme; for HDAC Inhibition 1 μM: inhibitor at 1 μM; for HDAC Inhibition 1 μM / HDAC Inhibition 10 μM: in % (unit assumed); for HDAC Inhibition 10 μM: inhibitor at 10 μM
Description: Histone Deacetylase (HDAC) Inhibition Assay using Boc-Lys (Ac)-AMC Substrate: Inhibition of HDAC has been implicated to modulate transcription and to induce apoptosis or differentiation in cancer cells. The fluorometric assay provides a fast and fluorescence based method that eliminates radioactivity, extractions or chromatography, as used in traditional assays. The assay based on two steps. First, the HDAC fluorometric substrate, which comprises an acetylated lysine side chain, is incubated with a sample containing HDAC activity (Mouse Liver Extract). Deacetylation of the substrate sensitizes the substrate, in the second step; treatment with the Trypsin stop solution produces a fluorophore that can be easily analyzed using fluorescence plate reader.
Assay was done in 96 well black microplate and total volume of the assay is 100 ul. Mouse liver enzyme is diluted 1:6 with HDAC buffer. Enzyme cocktail made of 10 ul of diluted enzyme and 30 ul of HDAC buffer. 40 ul of enzyme cocktail dispensed into each well. 10 ul of different concentrations of inhibitor added in to each well, except enzyme control well. Preincubated the plate at 30° C. for 5 minutes. The HDAC reaction is started by adding 50 ul of HDAC substrate (Boc-Lys (Ac)-AMC Substrate) solution. Incubated the plate at 30° C. for 30 minutes. Adding 100 ul of Trypsin stop solution stops the reaction. The plate is incubated again at 30° C. for 20-30 minutes. The release of AMC is monitored by measuring the fluorescence at excitation wavelength of 365 or 360 nm and emission wavelength of 440 or 460 nm. Buffer and substrate alone kept for blank subtraction. (Dennis Wegener et al, Anal. Biochem, 321, 2003, 202-208).

[6] = tested on: MDAMB231/U251; assay: cells; details: 48 h, read-out: MDAMB231/U251 LC50

| SMILES | melting point | GI50 [1] | CC50 [1] | GI50 [2] | GI50 [3] | CC50 [3] | GI50 [4] | HDAC Inhibition 1 μM [5] | HDAC Inhibition 10 μM [5] | CC50 [6] | IC50 [5] |
| --- | --- | --- | --- | --- | --- | --- | --- | --- | --- | --- | --- |
| CSc1ccc(/C=C(\C(=O)NCCCCCC(=O)NC(Cc2ccc(O)cc2)C(=O)NO)c2ccc(F)cc2)cc1 (stereo not drawn) [Example 54] | 142.1 to 145.4 °C | – | – | – | – | – | – | – | – | – | – |
| COc1c(F)c(F)c(/C(=C/c2ccc(F)cc2)C(=O)NCCCCCC(=O)NC(Cc2ccc(O)cc2)C(=O)NO)c(F)c1F (stereo not drawn) [Example 56] | 162.4 to 165.2 °C | – | – | – | – | – | – | – | – | – | – |
| O=C(CCCCCNC(=O)/C(=C\c1ccc(Cl)s1)c1ccc(F)cc1)NO [Example 44, (2Z)-3-(5-Chlorothiophen-2-yl)-2-(4-fluorophenyl)-N-[6-(hydroxyamino)-6-oxohexyl]acrylamide] | 181 to 185.2 °C | – | – | – | – | – | – | – | – | – | – |
| O=C(CCCCCNC(=O)/C(=C\c1ccc(F)c(C(F)(F)F)c1)c1ccc(C(F)(F)F)cc1)NO [Example 22, (2Z)-3-(4-Fluoro-3-trifluoromethyl-phenyl)-2-(4-trifluoromethylphenyl)-N-[6-(hydroxyamino)-6-oxohexyl]acrylamide] | 95.1 to 103.6 °C | – | – | – | – | – | – | – | – | – | – |
| COc1cc(/C=C(\C(=O)NCCCCCC(=O)NO)c2ccc(F)cc2)cc(OC)c1OC [Example 48, (2Z)-3-(3,4,5-Trimethoxyphenyl)-2-(4 fluorophenyl)-N-[6-(hydroxyamino)-6-oxohexyl]acrylamide] | 153 to 157 °C | – | – | – | – | – | – | – | – | – | – |
| O=C(CCCCCNC(=O)/C(=C\c1ccc(F)c(Cl)c1)c1ccc(F)cc1)NO [Example 10, (2Z)-3-(3-Chloro,4-fluorophenyl)-2-(4-fluorophenyl)-N-[6-(hydroxyamino)-6-oxohexyl]acrylamide] | 163.8 to 164.3 °C | – | – | – | – | – | – | – | – | – | – |
| O=C(CCCCCNC(=O)/C(=C\c1ccc(F)c(Cl)c1)c1ccc(O)cc1)NO [Example 42, (2Z)-3-(3-Chloro-4-fluorophenyl)-2-(4-hydroxyphenyl)-N-[6-(hydroxyamino)-6-oxohexyl]acrylamide] | 100.3 to 103.9 °C | – | – | – | – | – | – | – | – | – | – |
| COc1cc(/C=C(\C(=O)NCCCCCC(=O)NO)c2ccc(O)cc2)cc(OC)c1 [Example 11, (2Z)-3-(3,5-dimethoxyphenyl)-2-(4-hydroxyphenyl)-N-[6-(hydroxyamino)-6-oxohexyl]acrylamide] | 144.1 to 144.6 °C | – | – | – | – | – | – | – | – | – | – |
| O=C(CCCCCNC(=O)/C(=C\c1ccc(F)c(F)c1)c1ccc(F)cc1)NO [Example 21] | 135.8 to 139.4 °C | – | – | – | – | – | – | – | – | – | – |
| COc1ccc(/C(=C/c2c(F)ccc(F)c2F)C(=O)NCCCCCC(=O)NO)cc1 [Example 40, (2Z)-3-(2,3,6-Trifluorophenyl)-2-(4-methoxyphenyl)-N-[6-(hydroxyamino)-6-oxohexyl]acrylamide] | – | 5.8 µM | > 100 µM | 1 µM | 3 µM | > 100 µM | 3.27 µM | 79.97 | 96.16 | 80 µM | – |
| CSc1ccc(/C=C(\C(=O)NCCCCCC(=O)NO)c2ccc(C(F)(F)F)cc2)cc1 [Example 38, (2Z)-3-(4-Thiomethylphenyl)-2-(4-trifluoromethylphenyl)-N-[6-(hydroxyamino)-6-oxohexyl]acrylamide] | – | 5.5 µM | 65 µM | 0.07 µM | 6 µM | 64 µM | 3.9 µM | 59.26 | 97.74 | 60 µM | – |
| CSc1ccc(/C=C(\C(=O)NCCCCCC(=O)NO)c2cccs2)cc1 [Example 43, (2Z)-3-(4-Thiomethylphenyl)-2-(thiophene-2-yl)-N-[6-(hydroxyamino)-6-oxohexyl]acrylamide] | – | 5 µM | 70 µM | 0.05 µM | 10 µM | > 100 µM | 5.02 µM | 89.26 | 100 | 75 µM | 0.26 µM |
| O=C(CCCCCNC(=O)/C(=C\c1ccncc1)c1ccc(F)cc1)NO [Example 14, (2Z)-3-(4-Pyridine)-2-(4-fluorophenyl)-N-[6-(hydroxyamino)-6-oxohexyl]acrylamide] | – | > 100 µM | > 100 µM | > 100 µM | > 100 µM | > 100 µM | > 100 µM | 21.1 | 35.4 | > 100 µM | – |
| Cc1ncsc1/C=C(\C(=O)NCCCCCC(=O)NO)c1ccc(C(F)(F)F)cc1 [Example 26, (2Z)-3-(4-Methylthiazol-5-yl)-2-(4-trifluoromethylphenyl)-N-[6-(hydroxyamino)-6-oxohexyl]acrylamide] | – | 9 µM | 100 µM | 10 µM | 34 µM | > 100 µM | 17.7 µM | 39.38 | 76.69 | 85 µM | – |
| CSc1ccc(/C=C(\C(=O)NCCCCCC(=O)Nc2nc3cc(C)ccc3s2)c2ccc(F)cc2)cc1 [Example 19, (2Z)-3-(4-Thiomethylphenyl)-2-(4-fluorophenyl)-N-[6-(5-methyl-2-benzothiazoleamine)-6-oxohexyl]acrylamide] | – | > 100 µM | > 100 µM | 5.8 µM | 8 µM | > 100 µM | 6.9 µM | −22.2 | 10.2 | > 100 µM | – |
| COc1cc(/C=C(\C(=O)NCCCCCC(=O)Nc2cccc(O)c2)c2ccc(F)cc2)cc(OC)c1 [Example 3] | – | 40 µM | > 100 µM | 73 µM | 50 µM | > 100 µM | 54.3 µM | −6.41 | −6.45 | > 100 µM | – |
| Cc1ncsc1C=C(C(=O)NCCCCCC(=O)NO)c1ccc(Cl)cc1 (stereo in doubt) [Example 12, (2Z)-3-(4-Methyl-1,3-thiazol-5-yl)-2-(4-chlorophenyl)-N-[6-(hydroxyamino)-6-oxohexyl]acrylamide] | 78.5 to 79 °C | – | – | – | – | – | – | – | – | – | – |
| COc1cc(/C=C(\C(=O)NCCCCCC(=O)NOCc2ccccc2)c2ccc(F)cc2)cc(OC)c1 [Example 33] | 79.9 to 86.7 °C | – | – | – | – | – | – | – | – | – | – |
| COc1cc(/C=C(\C(=O)NCCCCCC(=O)Nc2ccccc2O)c2ccc(O)cc2)cc(OC)c1OC [Example 6] | – | 38 µM | 91 µM | 60 µM | 44 µM | 85 µM | 47 µM | 15.9 | 36.1 | > 100 µM | – |
